Assay results as given in patent publication US12721875B2, “Drug for treatment of breast cancer with antler and ginseng as sovereign drug and preparation method and application thereof” (Jilin University, priority 2024, dated 2026).

Experiments:
breast cancer = experiment: Clinical observation and typical clinical cases of breast cancer patients; format: in vivo, human; conditions: clinical case 1, Abemaciclib and Fulvestrant for 3 days
4T1 breast cancer cells = experiment: 4T1 triple-negative mice breast cancer model, second batch, DTX with or without medium dose preparation, 31 days; format: in vivo, BALB/c mice
Description: after the required amount of 4T1 breast cancer cells were cultured, the cells were resuspended in phosphate-buffered saline (PBS) after trypsin digestion and centrifugation, and the cells were counted and diluted to a cell concentration of 1×10^7 cells/mL. All mice were intraperitoneally injected with 50 mg/kg pentobarbital sodium and 0.5% lidocaine solution for infiltration anesthesia, under anesthesia, 0.1 mL cell suspension of each mouse was inoculated in the third pair of mammary fat pads on the left side, the cotton swab was pressed for a moment to avoid cell outflow after inoculation. During the inoculation process, the pipette blows the cell suspension to ensure uniform suspension.
experimental BALB/c mice were divided into 3 groups with 10 mice in each group. They were the PBS group, chemotherapy […] (DTX) group, and DTX+medium dose (0.85 mg/kg) group.
The mice were administered by gavage on the second day after tumor implantation, the DTX group was intraperitoneally injected with 0.2 mL of DTX, once a week. The DTX+medium dose group was intraperitoneally injected with DTX at the first and fourth weeks of inoculation and combined with the medium dose of Antler-Ginseng compound preparation. The tumor volume (L×W2×0.4) and body weight of mice were measured on the 7th day after inoculation. For a total of 31 days. Flow cytometry analysis: three mice in each group of PBS group and DTX+medium dose group were selected randomly for flow cytometry analysis of tumor tissue and spleen. All statistical analyses were performed by using GraphPad Prism 9.0, P<0.05 was considered statistically significant.
6. The Antler-Ginseng compound preparation reduces the course of chemotherapy and the frequency of medication, and the anti-tumor effect is better than the anti-tumor effect of single-agent chemotherapy. […]

Compound | increase of transaminase (liver function) (breast cancer) | body weight of the experimental animals (4T1 breast cancer cells; DTX once a week, combination with halved chemotherapy frequency plus medium dose preparation) | tumor volume compared with the PBS group (4T1 breast cancer cells; P<0.05) | tumor weight compared with the PBS group (4T1 breast cancer cells; P<0.05)
CCN1CCN(Cc2ccc(Nc3ncc(F)c(-c4cc(F)c5nc(C)n(C(C)C)c5c4)n3)nc2)CC1 [Abemaciclib] | 10 times |  |  | 
CC(=O)O[C@@]12CO[C@@H]1C[C@H](O)[C@@]1(C)C(=O)[C@H](O)C3=C(C)[C@@H](OC(=O)[C@H](O)[C@@H](NC(=O)OC(C)(C)C)c4ccccc4)C[C@@](O)([C@@H](OC(=O)c4ccccc4)[C@H]21)C3(C)C [DTX, docetaxel] |  | significantly reduced | significantly lower | significantly lower
